Experimental data reported in PubChem BioAssay AID1996.
In brackets after ≈: the same amount, converted by molar mass.

Settings: buffer; pH 7.4; 200.0 µM

SMILES | solubility kinetic
CC1CN(C(=S)Nc2cccc(F)c2)CC(C)O1 (configuration not stated) | 40.2 µg/mL (≈ 150 µM)
Cc1cc(Cl)ccc1NC(=O)/C=N/O | > 31.9 µg/mL
Cc1cc(C)nc(/N=C(\NC(=O)C(C)(C)C)Nc2ccc(F)cc2)n1 | 0.5 µg/mL (≈ 1.46 µM)
CCOc1ccc2c(c1)c1nc3ccccc3nc1n2C | < 0.2 µg/mL
CCCC(=O)Nc1ccc(-c2nc3ncccc3o2)cc1 | 2.1 µg/mL (≈ 7.46 µM)
C=CCNc1nc(N)c([N+](=O)[O-])c(N2CCCCCC2)n1 | 40.4 µg/mL (≈ 138 µM)
COC(=O)c1ccccc1Oc1ccc(NC(=O)c2ccco2)cc1 | 49.6 µg/mL (≈ 147 µM)
COc1ccccc1CCNC(=O)c1csc2c1CCCC2 | 1 µg/mL (≈ 3.17 µM)
CN1CC(=O)N2[C@H](c3ccc4c(c3)OCO4)c3[nH]c4ccccc4c3C[C@@H]2C1=O | 3.2 µg/mL (≈ 8.22 µM)
COc1cc(CCC(=O)N2CC(C)OC(C)C2)cc(OC)c1OC (configuration not stated) | > 50.6 µg/mL
CCOC(=O)c1[nH]cnc1C(=O)Nc1ccccc1C | 10.3 µg/mL (≈ 37.7 µM)
Cc1cc(NC(=O)Nc2ccccc2Cl)no1 | 36.2 µg/mL (≈ 144 µM)
O=S1(=O)CCN(OCc2ccc(Cl)cc2)CC1 | > 41.4 µg/mL
Cc1sc(N)nc1-c1c(C)n(C)c2ccccc12 | 37.6 µg/mL (≈ 146 µM)
CC(C)c1ccccc1NC(=S)NC1CCCCC1 | > 41.5 µg/mL
S=C(NCCc1ccccc1)N1CCN(C2CCCCC2)CC1 | 16.6 µg/mL (≈ 50.1 µM)
O=[N+]([O-])c1cc(-c2cnc3ccccc3n2)ccc1Cl | < 0.2 µg/mL
O=C(Nc1cc(Cl)ccc1O)c1cc(-c2ccco2)on1 | 1.4 µg/mL (≈ 4.59 µM)
CCOC(=O)C1=C[C@]2(CC)CCCN3CCc4c(n1c1ccccc41)[C@@H]32 | 35.5 µg/mL (≈ 101 µM)
NS(=O)(=O)c1ccc(N2CCOCC2)c(C(=O)NCc2cccs2)c1 | > 57.2 µg/mL

SMILES | solubility kinetic
O=C(COC(=O)c1cccc([N+](=O)[O-])c1)NC1CCCC1 | 32.3 µg/mL (≈ 111 µM)
COc1ccc(/C=C(\C)C(=O)c2c(C)cc(C)[nH]c2=O)cc1 | 42.9 µg/mL (≈ 144 µM)
O=C(Cn1c(=S)[nH]c2ccccc2c1=O)N1CCc2ccccc2C1 | 3.9 µg/mL (≈ 11.1 µM)
CCOc1ncccc1C(=O)OC(C)C(=O)Nc1ccc(CC)cc1 (configuration not stated) | 7.1 µg/mL (≈ 20.7 µM)
COc1ccc(Cl)cc1NC(=S)NCc1cccs1 | 37.3 µg/mL (≈ 119 µM)
O=C(OCc1cnc(Cl)s1)c1c(F)cccc1F | 21.5 µg/mL (≈ 74.2 µM)
Cc1ccc(NC(=O)Cc2nc(COC(=O)c3c(F)cccc3Cl)cs2)cc1 | 7.5 µg/mL (≈ 17.9 µM)
Cc1ccc(-c2c(C)sc3nc[nH]c(=O)c23)cc1C | 39.7 µg/mL (≈ 147 µM)
CC(C)(C)c1ccc(OCC(O)CN2CCc3ccccc3C2)cc1.Cl (configuration not stated) | 11.7 µg/mL
O=C(CN1C(=O)NC2(CCCC2)C1=O)OCCOc1ccccc1 | > 49.9 µg/mL
O=C(O)CCCCCNC(=O)C(=O)C1C(=O)Nc2ccccc21 (configuration not stated) | > 47.7 µg/mL
C=CCN1CN(CCc2ccccc2)CNC1=S | > 39.2 µg/mL
O=C(Nc1cccc(NC(=O)C2CCCO2)c1)C1CCCO1 (configuration not stated) | > 45.7 µg/mL
COc1ccc(Cl)cc1C(=O)OCC(=O)N1CCCC(C)C1 (configuration not stated) | > 48.9 µg/mL
Cc1ccc2c(Cl)c(C(=O)NC3CC3)sc2c1 | < 0.6 µg/mL
O=C(Cc1ccc(F)cc1)Nc1nccs1 | 34.4 µg/mL (≈ 146 µM)
O=C(O)Cn1cc(CN2CCOCC2)c2ccccc21 | 30 µg/mL (≈ 109 µM)
Cc1ccc(CC2CC(=O)N(c3cc(C)ccc3C)C2=O)cc1 (configuration not stated) | 33.9 µg/mL (≈ 110 µM)
Cc1cc(C)c2c(CN3CCC(C)CC3)cc(=O)oc2c1 | 4.3 µg/mL (≈ 15.1 µM)
O=C(Nc1cc(S(=O)(=O)N2CCOCC2)ccc1N1CCCCC1)c1ccccc1Br | 6.1 µg/mL (≈ 12 µM)

SMILES | solubility kinetic
COC(=O)c1[nH]c2ccccc2c1NC(=O)C(C)N1CC(C)OC(C)C1 (configuration not stated) | > 53.9 µg/mL
CSc1ccc(C2N=C(c3ccccc3)NO2)cc1 (configuration not stated) | 11.9 µg/mL (≈ 44 µM)
C=CCN1CCN(C(=O)c2cc3c(s2)CCC(CC)C3)CC1 (configuration not stated) | 46.3 µg/mL (≈ 145 µM)
O=C(O)CCCN1C(=O)c2ccccc2Sc2ncccc21 | > 47.2 µg/mL
CCc1nc(N2CCN(C(C)=O)CC2)c(C#N)c2c1COC(C)(C)C2 | > 51.4 µg/mL
C=CCN1C(=S)N[C@@H]2CS(=O)(=O)C[C@@H]21 | > 34.8 µg/mL
Cc1nc2cc(NC(=O)N3CCCC3)ccc2n1C | 29.4 µg/mL (≈ 114 µM)
C=CCNC(=O)c1cc(-c2ccncc2)nc2c(C)cc(C)cc12 | 2 µg/mL (≈ 6.3 µM)
O=C(Nc1ccc2c(c1)COC2=O)c1ccc(Cl)c(Cl)c1 | 3.5 µg/mL (≈ 10.9 µM)
COc1ccc(N(CC2CO2)S(=O)(=O)c2ccc(C)cc2)cc1 (configuration not stated) | 49 µg/mL (≈ 147 µM)
O=C(NCc1cccnc1)Nc1cccc(Cl)c1Cl | 27.7 µg/mL (≈ 93.5 µM)
CC(=O)NC1=NN(C(C)=O)C(C)(c2cccnc2)S1 (configuration not stated) | > 41.7 µg/mL
Cc1ccccc1NC(=O)NC1CCCCCCC1 | 1.5 µg/mL (≈ 5.76 µM)
CC(C)Oc1ccc(C2CC(=O)NC2=O)cc1 (configuration not stated) | > 35 µg/mL
CSc1nc(C)nc(C2CC2)c1C#N | 1.2 µg/mL (≈ 5.85 µM)
CC1CCCCC12NC(=O)N(Cc1cc(=O)n3ccsc3n1)C2=O (configuration not stated) | > 52 µg/mL
Cc1cc(C)c(C#N)c(SCC(=O)C2CC2)n1 | 3.6 µg/mL (≈ 14.6 µM)
C=CCNC(=O)NC(=O)c1csc([N+](=O)[O-])c1 | 2 µg/mL (≈ 7.84 µM)

Now from value to compound:

solubility kinetic | SMILES
> 40.4 µg/mL | CC(C)c1ccc(NC(=O)NCc2ccccn2)cc1
12.9 µg/mL (≈ 36.2 µM) | Cc1ccc(N2C(=O)N(c3ccc(C)cc3)C3CS(=O)(=O)CC32)cc1 (configuration not stated)
> 53.8 µg/mL | Cc1c(NC(=O)Nc2ccc(F)cc2F)c(=O)n(-c2ccccc2)n1C
> 44.4 µg/mL | C/C(=N/NC(=O)CNC(=O)c1cccnc1)c1ccccc1
> 45.9 µg/mL | O=C(O)c1ccc(NCc2ccc(Br)cc2)cc1
> 46.7 µg/mL | CCOc1ccc(C(=O)N2CCN(c3ccccn3)CC2)cc1
18.4 µg/mL (≈ 66.3 µM) | COc1ccc(NC(=O)Oc2ccccc2)cc1Cl
15.1 µg/mL (≈ 42.1 µM) | NC(=O)c1ccc(NC(=O)COC(=O)CCSc2ccccc2)cc1
11.6 µg/mL (≈ 36.6 µM) | Cc1ccc(NC(=O)C2=CC=CN3CCS(=O)(=O)N=C23)cc1
> 54.6 µg/mL | CC(C)(C)NC(=O)COc1ccc(CNCc2ccccn2)cc1.Cl
22.5 µg/mL (≈ 80.6 µM) | Cc1ccc(/C(O)=C/c2nc3ccccc3oc2=O)cc1
2.4 µg/mL (≈ 6.69 µM) | Cc1ccc(S(=O)(=O)N(C)C)cc1NC(=O)c1sccc1Cl
23.6 µg/mL (≈ 73.2 µM) | Cc1cccc(C(=O)Nc2cccc(C(=O)NC3CCCC3)c2)c1
2.7 µg/mL (≈ 8.89 µM) | O=C(CCl)N1c2ccccc2SCC1c1ccccc1 (configuration not stated)
16 µg/mL (≈ 52.9 µM) | CCCCC(=O)Nc1ccc(NCc2ccc(C)s2)cc1
37.3 µg/mL (≈ 128 µM) | O=C1CC(N2CCc3ccccc32)C(=O)N1c1ccccc1 (configuration not stated)
36.5 µg/mL (≈ 138 µM) | Cc1ccccc1CC(=O)N1CCCc2ccccc21
0.8 µg/mL (≈ 2.28 µM) | CC(C)(C)N(Cc1ccccc1)C(=O)CN1C(=O)c2ccccc2C1=O
46.8 µg/mL (≈ 143 µM) | COc1ccccc1CC(=O)N1CCN(c2ccccc2F)CC1
> 46.6 µg/mL | CCn1c(C)nnc1SCC(=O)Nc1ccccc1Cl
> 52.3 µg/mL | O=C(O)c1ccc(-c2nc3scc(-c4ccccc4)c3c(=O)[nH]2)cc1
18.5 µg/mL (≈ 52.6 µM) | Cc1c(C(=O)OC(C)C(=O)N(C)Cc2ccccc2)oc2ccccc12 (configuration not stated)
0.3 µg/mL (≈ 1.02 µM) | C=CCc1cccc(CNc2nc3ccccc3n2C)c1O
> 36 µg/mL | CN(C)/C=C/C(=O)c1ccc(-n2cccc2)cc1
> 52.1 µg/mL | O=C(NCCOc1ccccc1)C1=CC=CN2CCS(=O)(=O)N=C12
1.8 µg/mL (≈ 6.09 µM) | CCCCN(C)Cc1cc(=O)oc2ccc3ccccc3c12
0.8 µg/mL (≈ 2.45 µM) | CCn1c(SCc2cccc(OC)c2)nc2ccccc2c1=O
23.2 µg/mL (≈ 75 µM) | O=C(/C=C/c1cccc(O)c1)c1ccc(N2CCOCC2)cc1
21.8 µg/mL (≈ 69.1 µM) | CC1SC(c2ccc(F)cc2)N(CCc2ccccc2)C1=O (configuration not stated)
